One experiment has as its system HER3. In words: HER3 expression level (Western blot) after peptide transfection. The following applies: after peptide treatment (FIG. 4A); poorly appreciable in MDA-MB-453. The experiment is classed as cell-based, human. Here is the method:
(§1) Treatments and lmmunodecorations. […] Briefly the cells have been plated at 5×10^5 concentration in 60 mm plates. […] At the end of the treatment the cells have been lysed with RIPA buffer [150 mM NaCl, 1% NP-40, 0,5% sodium deoxycholate (DOC), 0.1% SDS, 50 mM TrisHCl (pH 8), 1 mM PMSF, 1 mM EGTA, 50 mM NaF, 50 mM Na3VO4 and protease inhibitors (Roche, Milano, IT)] in order to analyze the expression levels of phosphorylated and total ErbB-3, ErbB-2, ERK and HSP-70 proteins. In order to analyze the levels of Akt phosphorylation and expression, the cells have been lysed in NP-40 buffer [1% NP-40, 10% glycerol, 137 mM NaCl, 20 mM TrisHCl (pH 7.4), 50 mM NaF, 1 mM PMSF, 5 mM Na3VO4, protease inhibitors (Roche, Milano, IT)]. Cell lysates have been incubated on ice for 20 minutes and centrifuged at 14000 rpm for 20 minutes. RIPA buffer obtained cell extracts have been boiled for 5 minutes at 95° C., while NP40 buffer lysed samples have been boiled at 65° C. for 5 minutes. Samples have been subjected to SDS-PAGE and transferred on nitrocellulose filters (Bio-Rad, Milan, IT). Then the filters have been incubated with interest antibodies, washed and incubated with specific secondary horse radish peroxidase (HRP) conjugated antibodies. After thorough washing, nitrocellulose peroxidase activity has been detected by chemiluminescence (Lite-blot-Euroclone, Milano, IT)
A general note: In western blotting, separated proteins are transferred to a membrane and probed.

The subject of experiment [1] is PI3K activity measured as Akt phosphorylation. As to the kind of experiment: Akt phosphorylation (Western blot) after peptide transfection. The experiment is classed as cell-based, human. The following applies: for inhibition of PI3K activity measured as inhibition level of Akt phosphorylation: MCF7 cells, peptide transfection at different doses (FIG. 12). Here is the method:
Peptide transfection. In order to inhibit the p85 and ErbB3 interaction, MCF7, BT474 and MDA-MB-453 cell lines have been transfected using 80, 100, and 180 μg, respectively, of the following phosphopeptides:
as §1

For the next experiment, the system named is MCF7/Luc cells. In words: In vivo growth of peptide-transfected MCF7/Luc cells inoculated s.c. Also noted: species or system SCID mice. Here is the method: Xeno-grafts. In vivo tests have been carried out using 40 day old SCID female mice (Harlan Laboratories, Milan, IT). At day 0, animals have been totally anesthetized with intramuscular injection of 400 μg/animal (average weight 25 g) of Zoletil (Virbac) containing 0.12% Xylor (Xylazine), and transplanted subcutaneously (s.c.), in intrascapular mouse region with pellet of […] (1.7 mg/sustained release pellet over 60 days, Innovative Research of America, Sarasota, Fla.). On the next day, 5×10^6 proliferating and scr and 1257 peptide previously transfected, as above described, MCF7 or BT474 cells, have been re-suspended in 0.1 ml of Matrigel (BD Biosciences) and subcutaneously inoculated in each mouse. […] Tumour growth has been monitored two times weekly using calibration along two orthogonal axes: length (L) and […]. The tumour volume (V) has been calculated using the formula V=L*(W2)/2. All the procedures relating to animals and treatment thereof have been carried out according institutional guidelines.
Generation of mammary tumour luminescent cells. Mammary tumour MCF7 cell lines stably transfected using pGL4.51 (luc2/CMV/Neo) expression vector, produced by Promega (Me, IT), have been transfected using scr or 1257 phosphopeptide ([…]×5×10^4 cells/mouse) and after 30 h subcutaneously inoculated in SCID mice (5×10^6 cells/mouse) in 200 μl (1:1 Matrigel: cell suspension in serum free medium). Mice have been in vivo imaged 20′ after inoculation and once weekly over 11 weeks. The animals have been anesthetized, as above reported, and subjected to intraperitoneal injection with 200 μl of luciferin (Caliper, Mi, IT); 10′ after incubation photon emission has been analyzed at 3′ minute exposure using Xenogen Ivis Lumina 2 machine. Growth of these cells has been monitored as reported in xenografts section.
Then it has been verified whether 1257 phosphopeptide was effective also in vivo. To this purpose immunocompromised SCID mice have been used. In the presence of oestrogen tablets, 5×10^6 control cells transfected with scr peptide or transfected with 1257 peptide have been injected subcutaneously between mouse scapulae. In order to verify the viability of phosphopeptide transfected cells in animals we have generated a stable luciferase gene expressing MCF7 cell line (MCF7/Luc).

In a further experiment the test system is BT474 xenograft. In words: Electroporation tumour therapy of BT474 xenografts. The experiment is classed as in vivo, SCID mice. The following applies: Herceptin i.p. (FIG. 11A).
The target of a further experiment is T1, p85 and HER3 interaction (Homo sapiens, UniProt P27986).
T1 construct: Whole cell lysates have been imunoprecipitated with anti-p85 antibody; endogenous in cells; host or cells: MCF7, BT474, MDA-MB-453
In words: Immunoprecipitation with anti-p85, blot anti-HER3, in transfected cells. The following applies: three cell lines, 48 hr after Lipofectamine transfection (FIG. 2B). The experiment is classed as cell-based. The source says: Immunoprecipitation. MCF7, BT474 and MDA-MB-453 cell lines have been plated at 5×10^5 concentration in 60 mm plates. On subsequent day cells have been transfected with 1257 phosphopeptide and contrrol phosphopeptide. […] Whole cell lysates have been imunoprecipitated with anti-p85 antibody (#06-496) in the presence of protein G (Pierce, Milan, IT). Whole proteins and immunocomplexes then have been subjected to 8% SDS-PAGE and transferred on nitrocellulose filter. The proteins have been detected by immunodecoration using anti-ErbB3 and anti-p110α antibodies.
The peptide has been transfected using Lipofectamine in all three cell lines. […] This binding is required in order PI3K kinase to be activated.

Another experiment relates to HER2. As to the kind of experiment: HER2 expression level and ErbB-2 homodimer (Western blot) after peptide transfection. The experiment is classed as cell-based, human. Here is the method:
as §1

Where [2] appears, read: s.c. inoculation of transfected MCF7 cells, up to 16th week.

Non-standard residues stand in square brackets, D forms with d. No end group written: not given here. pY = N[C@@H](Cc1ccc(OP(=O)(O)O)cc1)C(=O)O

T1 sequence (P27986 whole entry): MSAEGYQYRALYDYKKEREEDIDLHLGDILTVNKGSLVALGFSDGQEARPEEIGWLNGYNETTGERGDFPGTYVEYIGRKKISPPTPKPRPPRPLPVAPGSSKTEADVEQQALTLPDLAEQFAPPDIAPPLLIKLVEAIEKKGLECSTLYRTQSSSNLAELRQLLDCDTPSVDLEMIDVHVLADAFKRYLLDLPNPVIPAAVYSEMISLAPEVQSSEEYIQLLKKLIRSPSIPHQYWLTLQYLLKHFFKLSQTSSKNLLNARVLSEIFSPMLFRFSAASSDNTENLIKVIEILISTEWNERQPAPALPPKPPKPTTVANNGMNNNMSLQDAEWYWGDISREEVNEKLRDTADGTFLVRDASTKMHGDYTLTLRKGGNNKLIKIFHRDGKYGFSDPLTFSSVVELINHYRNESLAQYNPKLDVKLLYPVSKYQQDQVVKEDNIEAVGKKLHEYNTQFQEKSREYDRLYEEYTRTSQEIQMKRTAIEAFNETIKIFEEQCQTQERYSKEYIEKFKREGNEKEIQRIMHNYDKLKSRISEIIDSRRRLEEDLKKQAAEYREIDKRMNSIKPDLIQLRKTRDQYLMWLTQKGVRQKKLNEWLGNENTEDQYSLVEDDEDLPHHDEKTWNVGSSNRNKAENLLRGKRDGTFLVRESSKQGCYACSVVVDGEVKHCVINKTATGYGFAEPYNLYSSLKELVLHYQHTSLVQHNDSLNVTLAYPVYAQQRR
Method for BT474 xenograft: Xeno-grafts. In vivo tests have been carried out using 40 day old SCID female mice (Harlan Laboratories, Milan, IT). At day 0, animals have been totally anesthetized with intramuscular injection of 400 μg/animal (average weight 25 g) of Zoletil (Virbac) containing 0.12% Xylor (Xylazine), and transplanted subcutaneously (s.c.), in intrascapular mouse region with pellet of 17-h-extradiol (1.7 mg/sustained release pellet over 60 days, Innovative Research of America, Sarasota, Fla.). […] Tumour growth has been monitored two times weekly using calibration along two orthogonal axes: length (L) and depth (VV). The tumour volume (V) has been calculated using the formula V=L*(W2)/2.
Electroporation tumour therapy. […] Therapy has been repeated once weekly, and tumour size monitored up to 70 days.

“RDGGGPGGDpYAAMGACPA (RDGGGPGGD[pY]AAMGACPA; listed as Homo sapiens) [1257 phosphopeptide]”: in the experiment with HER3, the “total level of HER3” value is “decrease”. Besides, the “phosphorylation of Akt” value in experiment [1] (MCF7, BT474 and MDA-MB-453 cells (FIG. 4A), Herceptin where combined) is listed as “inhibition the phosphorylation of Akt”. For the same substance, the “inhibition of PI3K activity measured as inhibition level of Akt phosphorylation” value in experiment [1] was “remarkably inhibits Akt phosphorylation”. The “inhibition of PI3K activity measured as inhibition level of Akt phosphorylation” value in experiment [1] (listed as 1257 peptide) is given as “high efficiency”. In addition, in experiment [1] (stability inside of cell (FIG. 5A)), the “time after transfection for which Akt phosphorylation is inhibited” value is “up to 6 days”. For the same substance, the “luminescence of transplanted cells over the time” value in the experiment on MCF7/Luc cells (bioluminescence imaging weekly (FIG. 7A)) is recorded as “progressively decreases”. In addition, the “time after inoculation at which tumours were calibratable” value with MCF7/Luc cells (s.c. inoculation of transfected MCF7 cells) is on record as “about 10 week”. In addition, in the experiment with MCF7/Luc cells (setting [2]), the “animals that displayed tumour” value is listed as “One out of five” and the “reduction of tumour take” value was determined as 80%. For the same substance, the “tumour mass compared to not treated control” value in the experiment on BT474 xenograft is given as “strongly reduces the tumour mass”. Also, the “inhibition of p85 and HER3 interaction” value with p85 and HER3 interaction is “inhibits effectively p85 and HER3 interaction”. The “total level of HER2” value in the experiment with HER2 (after peptide treatment (FIG. 4A), poorly appreciable in MDA-MB-453) was “decrease”. Also, the ErbB-2 homodimer levels result with HER2 (not reducing conditions (FIG. 5B)) is listed as “favours the formation of ErbB-2 homodimer”.
